# Measured values from patent publication US20080261999A1, “Azabicycloalkane Derivatives Useful as Nicotinic Acetylcholine Receptor Agonists” (priority 2005, published 2008).
# How the values were obtained:
# [1] = target: T1, human α4β2 nAChRs (Homo sapiens, UniProt P17787+P43681); assay: Nicotinic receptor radioligand binding SPA, [3H]-epibatidine, α4β2
# T1 construct: expressed in transfected cells; host or cells: HEK-293
# Procedure: (§1) Cell pastes from large-scale production of HEK-293 cells expressing human α4β2, or α3β4 nAChRs are homogenised in 4 volumes of the appropriate buffer (50 mM Tris.HCl containing 150 mM NaCl and 5 mM KCl, pH 7.4). The homogenate is centrifuged twice (40,000 g, 10 minutes, 4° C.) and the pellets re-suspended in 4 volumes of Tris.HCl buffer after the first spin and 8 volumes after the second spin. The re-suspended homogenate is centrifuged (100 g, 10 minutes, 4° C.) and the supernatant kept and re-centrifuged (40,000 g, 20 minutes, 4° C.). The pellet is re-suspended in Tris.HCl buffer supplemented with 10% w/v sucrose. The membrane preparation is stored in 1 ml aliquots at −80° C. until required. The protein concentration of the membrane preparation is determined using a BCA protein assay reagent kit.
# (§2) 96-well SPA radioligand binding assays are performed in a final volume of 250 μl Tris-HCl buffer (50 mM Tris-HCl, 150 mM NaCl, 5 mM KCl, pH 7.4) with 1 nM ((α4β2) or 2 nM (α3β4) [^3H]-epibatidine (53 Ci/mmol; Amersham); 1 mg/well ((α4β2) or 1.5 mg/well (α3β4) WGA-coated PVT SPA beads (Amersham) and 30 μg/well membrane protein for all 3 assay types. Non-specific binding (<10% for all 3 assay types) is determined using 10 μM epibatidine.
# (§3) Reactions are allowed to equilibrate for 2-4 hours at room temperature prior to reading on a Trilux Scintillation counter (Perkin Elmer). […]
# [2] = target: T2, human α3β4 nAChRs (Homo sapiens, UniProt P30926+P32297); assay: Nicotinic receptor radioligand binding SPA, [3H]-epibatidine, α3β4; settings: HEK-293 membranes, 2 nM [3H]-epibatidine
# T2 construct: expressed in transfected cells; host or cells: HEK-293
# T2 sequence (P32297 32-505): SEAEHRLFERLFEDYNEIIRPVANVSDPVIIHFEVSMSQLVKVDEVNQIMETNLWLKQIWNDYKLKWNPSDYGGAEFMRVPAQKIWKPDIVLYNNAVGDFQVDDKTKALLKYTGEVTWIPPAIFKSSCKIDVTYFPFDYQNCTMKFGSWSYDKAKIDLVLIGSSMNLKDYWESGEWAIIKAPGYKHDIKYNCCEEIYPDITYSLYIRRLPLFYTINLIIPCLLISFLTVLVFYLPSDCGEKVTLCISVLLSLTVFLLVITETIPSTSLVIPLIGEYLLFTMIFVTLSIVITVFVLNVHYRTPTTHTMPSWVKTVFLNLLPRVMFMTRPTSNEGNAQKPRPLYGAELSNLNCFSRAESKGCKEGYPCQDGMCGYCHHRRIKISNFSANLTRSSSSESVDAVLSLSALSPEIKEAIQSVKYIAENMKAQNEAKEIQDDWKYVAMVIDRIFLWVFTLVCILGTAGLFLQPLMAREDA
# T2 sequence (P30926 22-498): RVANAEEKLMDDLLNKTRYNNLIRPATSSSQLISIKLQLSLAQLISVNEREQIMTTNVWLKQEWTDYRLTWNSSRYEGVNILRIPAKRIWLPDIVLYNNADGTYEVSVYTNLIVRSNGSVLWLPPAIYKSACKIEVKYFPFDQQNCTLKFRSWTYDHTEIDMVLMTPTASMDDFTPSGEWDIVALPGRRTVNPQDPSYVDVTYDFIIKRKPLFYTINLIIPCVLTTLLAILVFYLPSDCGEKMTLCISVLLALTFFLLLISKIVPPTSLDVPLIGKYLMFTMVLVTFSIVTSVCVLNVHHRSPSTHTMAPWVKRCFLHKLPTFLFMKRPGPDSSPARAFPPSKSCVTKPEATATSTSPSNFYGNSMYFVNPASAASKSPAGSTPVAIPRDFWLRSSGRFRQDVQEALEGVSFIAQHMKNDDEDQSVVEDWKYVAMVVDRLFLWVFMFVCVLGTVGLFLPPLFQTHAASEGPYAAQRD
# Procedure: as §1, §2, §3
# [3] = tested on: rat striatal slices; assay: [3H] Dopamine release assay from rat striatal slices; type: cell-based
# Procedure: [^3H] Dopamine Release Assay from Rat Striatal Slices
# Release of [^3H]dopamine from rat striatal slices is performed as follows. Male Lister-Hooded rats (250-350 g) are sacrificed by exposure to CO2 followed by cervical dislocation. Striata from 2 rats is dissected and chopped 3 times at 150 μm using a Mcllwain tissue chopper, each time rotating the tissue through 60°. Slices are dispersed in Krebs bicarbonate buffer (118 mM NaCl, 2.4 mM KCl, 2.4 mM CaCl2.2H2O, 1.2 mM KH2PO4, 1.2 mM MgSO4.7H2O, 25 mM NaHCO3, 10 mM glucose, 1 mM ascorbic acid, gassed with 5% CO2/95% O2 for 1 h, pH 7.4) including […] pargyline, and incubated with [^3H]dopamine (50 nM) for 30 minutes at 37° C. […]
# Optiphase Supermix (Wallac) scintillation fluid (170 μl) is added to each well of the collection plates prior to plates being heat sealed and radioactivity quantified using a Wallac 1450 Microbeta 96-well plate counter (Wallac Oy, Turku, Finland, counting efficiency 25%). Radioactivity remaining in the slices is measured by digestion of the tissue in 0.2 ml Solvable (Packard Biosciences) for 1 h followed by addition of 0.5 ml isopropyl alcohol and 4.5 ml Hlionic Fluor scintillation fluid (Packard Biosciences). Radioactivity was then quantified using a Wallac 1410 scintillation counter (Wallac Oy, Turku, Finland, counting efficiency 35%). […]
# T1 sequence (P43681 29-627): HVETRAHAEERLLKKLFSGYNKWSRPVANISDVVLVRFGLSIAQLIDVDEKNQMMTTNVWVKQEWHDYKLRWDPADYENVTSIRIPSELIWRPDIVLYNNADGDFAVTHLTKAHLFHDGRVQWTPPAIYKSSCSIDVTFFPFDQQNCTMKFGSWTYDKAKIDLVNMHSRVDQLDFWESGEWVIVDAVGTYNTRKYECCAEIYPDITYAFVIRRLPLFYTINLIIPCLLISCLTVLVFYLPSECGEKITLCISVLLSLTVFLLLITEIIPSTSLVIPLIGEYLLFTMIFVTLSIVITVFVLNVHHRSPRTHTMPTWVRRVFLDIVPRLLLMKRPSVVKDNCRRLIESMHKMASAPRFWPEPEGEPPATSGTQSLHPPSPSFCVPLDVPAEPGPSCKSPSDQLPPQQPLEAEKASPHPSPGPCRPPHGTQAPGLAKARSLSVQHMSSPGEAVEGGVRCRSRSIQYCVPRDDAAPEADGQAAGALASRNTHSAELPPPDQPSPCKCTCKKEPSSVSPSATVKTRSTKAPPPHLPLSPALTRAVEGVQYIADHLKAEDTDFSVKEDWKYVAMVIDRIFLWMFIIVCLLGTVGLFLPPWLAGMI
# T1 sequence (P17787 26-502): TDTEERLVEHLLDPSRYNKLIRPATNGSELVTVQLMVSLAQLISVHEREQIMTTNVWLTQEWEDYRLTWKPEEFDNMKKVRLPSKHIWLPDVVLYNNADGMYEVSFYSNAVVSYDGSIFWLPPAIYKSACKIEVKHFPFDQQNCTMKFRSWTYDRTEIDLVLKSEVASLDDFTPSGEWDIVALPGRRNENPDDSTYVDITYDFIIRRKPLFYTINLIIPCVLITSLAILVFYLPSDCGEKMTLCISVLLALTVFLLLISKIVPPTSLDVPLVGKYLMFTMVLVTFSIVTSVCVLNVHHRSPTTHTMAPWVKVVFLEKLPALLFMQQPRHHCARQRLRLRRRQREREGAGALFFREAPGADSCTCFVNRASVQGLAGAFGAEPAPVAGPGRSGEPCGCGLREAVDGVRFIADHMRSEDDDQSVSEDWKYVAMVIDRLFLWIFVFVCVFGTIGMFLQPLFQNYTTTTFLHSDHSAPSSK
smiles,measurement,setting,value
Fc1cc(C2=CC3CNCC(C2)C3)cc(-c2ccoc2)c1 (centres unmarked) [Example 20],Ki,"[1]; HEK-293 membranes, 1 nM [3H]-epibatidine",5.37 nM
same,Ki α3β4/Ki α4β2,[1]; selectivity for α4β2 over α3β4,89.2
same,Ki,[2],479 nM
same,EC50,[3],135 nM
same,Efficacy Dopamine release %,[3],41.7%
